According to paper PMC6528491 (Frontiers in Pharmacology, 2019):
Values after ≈ are worked out from the molar mass of the structure shown. Read-outs that look alike come from different tables or passages of the source.

Columns and labels:
Caco2 cell system = settings: Caco-2; cited from earlier work
CYP3A4 = settings: cited from earlier work
[1] = set-up: method as in 2 sources, ref Wu et al., 2005 ||| ref Li et al., 2014; settings: cited from earlier work
[2] = Population pharmacokinetic analysis of CsA (NONMEM, two-compartment model with transit compartments); type: in vivo, healthy Chinese volunteers; settings: 95% CIs from 1,000 bootstrap samples included 1.0 and were inside 0.8–1.25
[3] = rats, cited from earlier work
[4] = intravenous high BG doses (0.23–0.90g/kg) to rats; ref Xin et al., 2013; cited from earlier work
P-gp = settings: rats; after multiple oral doses of BG; ref Tian et al., 2019; cited from earlier work
[5] = cited from earlier work
From the text: After oral administration, BG is rapidly hydrolyzed to baicalein ...

[6] = Clinical drug-drug interaction study, non-compartmental pharmacokinetics of CsA in blood; type: in vivo, healthy Chinese volunteers; settings: single 500 mg BG dose with 200 mg CsA; healthy volunteers; NCA
Protocol: The study was a single center, open-labeled, two-period, fixed-sequence clinical trial. […] Water intake was allowed 2 h after administration of the drug. All participants were given a standardized meal 4 h after dosing. […] Blood samples were withdrawn using vacuum tubes containing EDTA-K2 and immediately transferred to labeled tubes. The samples were stored at −80°C for subsequent analysis. […] Processing of the whole blood samples involved a two-step protein precipitation. Fifty microliters of zinc sulfate (10 mM) were added to 50 μl of a sample. […] After centrifugation, an aliquot (2 μl) of the supernatant was then injected onto an ultra high-performance liquid chromatography coupled with tandem mass spectrometry (UHPLC–MS/MS) device for analysis. UHPLC–MS/MS was performed using an ExionLC™ analytical UHPLC system (AB Sciex, MA, USA), coupled with a Qtrap 4,500 mass spectrometer (AB Sciex, Framingham, MA, USA), equipped with the Turbo lonSpray interface. […] The protonated analyte ions were detected in positive ionization and multiple reaction monitoring modes. […] Calibration curves were linear over the concentration range of 10–3,000 ng/ml. […] Exploratory statistical comparisons of pharmacokinetic parameters between male and female subjects were performed by the t-test for independent data. […]

[7] = set-up: method as in 2 sources, one per row (each row's own in cited_ref): ref Albengres and Tillement, 1992; Keogh et al., 1995 ||| ref Atiq et al., 2016; settings: ref Albengres and Tillement, 1992; Keogh et al., 1995; cited from earlier work
[8] = multiple oral administrations of BG 80 mg/kg, ref Tian et al., 2019
[9] = single dose of BG 136.6 mg/kg, ref Lai et al., 2004

O=c1cc(-c2ccccc2)oc2cc(O)c(O)c(O)c12 [B, baicalein]
Papp (Caco2 cell system): 9e-06 cm/s
Ki (CYP3A4): 2.3 µM
Exposure to BG relative to exposure to B ([1]; B single doses to healthy volunteers, ref Li et al., 2014): more than 10 fold
AUC of BG ([1]; after oral administration of 100 mg B, healthy volunteers, ref Li et al., 2014): 580 ng·h/mL
Tmax for both BG and B ([1]; oral B, ref Li et al., 2014): about 1 h

O=C(O)[C@H]1O[C@@H](Oc2cc3oc(-c4ccccc4)cc(=O)c3c(O)c2O)[C@H](O)[C@@H](O)[C@@H]1O [BG, baicalein 7-O-glucuronide]
Effect of factor BG co-treatment on popPK parameters of CsA (except Ka and Q) [2]: did not affect the respective pharmacokinetic parameters of CsA to a clinically relevant extent
Papp (Caco2 cell system): 0.275 ± 1.14 × 10^−6 cm/s
Effect on the exposure of CsA ([3]; multiple intravenous doses of BG, ref Tian et al., 2019): did not affect the exposure of CsA
Decrease of AUC0-∞ of CsA [3, 8]: 25%
Decrease of Cmax of CsA [3, 8]: 38%
Effect on Cmax and AUC0-∞ of CsA ([3]; oral administration of BG, ref Tian et al., 2019): significantly decreased
Effect on exposure to CsA ([3]; ref Lai et al., 2004): increased exposure to oral CsA
Elevation of AUC of CsA compared with CsA alone [3, 9]: ~6 times
Elevation of Cmax of CsA compared with CsA alone [3, 9]: about 4 times
Effect on the pharmacokinetics of CsA ([3]; single intravenous dose and multiple doses of BG, ref Tian et al., 2019): had no effect
Decrease of the clearance of midazolam [4]: up to 43%
AUC of BG ([1]; after oral administration of 750 mg BG, healthy subjects, ref Wu et al., 2005): 613 ng·h/mL
Tmax ([1]; oral BG, ref Wu et al., 2005): 7.4 h
Expression of P-gp in the intestine (P-gp): increased
Expression of P-gp in the liver (P-gp): not changed
Bound to proteins ([5]; human plasma, ref Tang et al., 2006): 86–92%
Solubility ([5]; in water, ref Wu et al., 2011): 57 µg/mL (≈ 128 µM)
Elimination half-life ([5]; ref Noh et al., 2016): 6.36 ± 5.85 h
Oral bioavailability ([5]; ref Wu et al., 2014): 2.2%
Effect of BG co-administration on the exposure of CsA [6]: no clinically relevant effect

CC(=O)N1CCN(c2ccc(OCC3COC(Cn4ccnc4)(c4ccc(Cl)cc4Cl)O3)cc2)CC1 (centres unmarked) [ketoconazole]
Elevation of CsA concentrations by concomitant administration [7]: several-fold
